The target of this test is T1, ERCC1/XPF (XPF endonuclease) (Homo sapiens, UniProt Q92889).
T1 construct: gene ERCC4; with ERCC1
The test is described as follows: fluorescence-based DNA incision assay with purified ERCC1/XPF. It counts as biochemical.

T1 sequence (Q92889 whole entry): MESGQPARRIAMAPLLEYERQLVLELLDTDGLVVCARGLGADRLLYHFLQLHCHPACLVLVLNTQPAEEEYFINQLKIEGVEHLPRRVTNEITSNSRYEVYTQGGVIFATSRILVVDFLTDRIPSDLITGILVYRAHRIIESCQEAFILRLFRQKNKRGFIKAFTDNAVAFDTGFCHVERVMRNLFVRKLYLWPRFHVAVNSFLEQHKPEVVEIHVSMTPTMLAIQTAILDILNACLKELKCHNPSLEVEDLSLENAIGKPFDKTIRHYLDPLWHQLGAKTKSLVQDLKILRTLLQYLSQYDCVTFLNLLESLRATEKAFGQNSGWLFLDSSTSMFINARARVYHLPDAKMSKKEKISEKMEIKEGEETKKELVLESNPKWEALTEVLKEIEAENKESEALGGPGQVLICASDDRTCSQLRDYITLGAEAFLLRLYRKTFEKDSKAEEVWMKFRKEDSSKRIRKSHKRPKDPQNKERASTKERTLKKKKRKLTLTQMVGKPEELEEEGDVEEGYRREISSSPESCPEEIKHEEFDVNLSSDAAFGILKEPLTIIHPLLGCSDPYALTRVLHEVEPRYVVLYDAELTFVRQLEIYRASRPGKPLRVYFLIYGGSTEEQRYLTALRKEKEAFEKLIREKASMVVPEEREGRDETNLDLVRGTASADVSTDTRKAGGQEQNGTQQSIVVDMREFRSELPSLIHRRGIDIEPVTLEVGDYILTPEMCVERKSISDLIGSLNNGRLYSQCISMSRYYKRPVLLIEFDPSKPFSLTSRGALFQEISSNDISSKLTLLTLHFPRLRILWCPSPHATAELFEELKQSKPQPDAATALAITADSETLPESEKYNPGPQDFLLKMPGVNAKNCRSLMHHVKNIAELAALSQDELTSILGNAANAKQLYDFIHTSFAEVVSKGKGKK
T1 sequence (P07992 whole entry, further chain): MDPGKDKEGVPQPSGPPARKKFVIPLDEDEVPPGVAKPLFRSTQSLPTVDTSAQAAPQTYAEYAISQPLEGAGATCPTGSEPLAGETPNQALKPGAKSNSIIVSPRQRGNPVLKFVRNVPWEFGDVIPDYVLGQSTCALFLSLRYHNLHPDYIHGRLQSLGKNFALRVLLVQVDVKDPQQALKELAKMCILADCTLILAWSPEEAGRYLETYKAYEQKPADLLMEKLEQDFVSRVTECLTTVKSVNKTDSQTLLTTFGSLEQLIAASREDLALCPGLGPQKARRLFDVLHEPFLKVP

What is called IC50 is the concentration that inhibits the measured activity by half. A high value points to weaker potency in that assay. For `O=c1c(O)c(-c2cc(O)c(O)c(O)c2)oc2cc(O)cc(O)c12` [Myricetin], the IC50 is approximately 150 nM.

These data come from publication PMC6267282, “Targeting the DNA Repair Endonuclease ERCC1-XPF with Green Tea Polyphenol Epigallocatechin-3-Gallate (EGCG) and Its Prodrug to Enhance Cisplatin Efficacy in Human Cancer Cells” (Nutrients, 2018).
